Test results reported in patent US20230090223A1, “NANOPARTICLES FOR USE IN THE TREATMENT AND DIAGNOSIS OF CNS DISORDERS” (priority 2020, published 2023).

Test: Relaxivity measurement, 1.0 T MRI scanner
Type: physicochemical
Conditions: room temperature
Procedure: A relaxivity study was performed by evaluating the longitudinal relaxation time T1 of HP—Au—Gd nanoparticles at different Gd concentrations at room temperature by using a 1.0 T-MRI scanner (ICON, Bruker Biospin, Ettlingen, Germany). The commercially available gadolinium contrast agent (Gadopentetic acid or Gd-DTPA) was used as the positive control. The contrast agents were initially placed into syringes and set in the center of the volume coil. The sample temperature was maintained at room temperature. By using the MRI scanner, horizontal single-slice T1-weighted MR images were acquired (spin echo, TR/TE=400/10 ms, slice thickness=2.0 mm, matrix=256×256, field of view (FOV)=38.4×38.4 mm, number of averages (NA)=10, number of slices=1). Horizontal single-slice inversion-recovery MRI was done to calculate the T1 and r1 by using rapid acquisition with relaxation enhancement (RARE) acquisition (TR=20,000 ms, TE=17 ms, inversion time=45, 100, 200, 400, 800, 1600, 3200, 6400, 8000, 10000, 12000 ms, matrix size=64×64, FOV=38.4×38.4 mm, slice thickness=2.0 mm, RARE factor=4, and NA=1). Then, the r1 relaxivities were calculated by using the following equation: r1=(1/T1-1/T1(0))/[Gd] where [Gd] is the concentration of Gd, and 1/T1(0) and 1/T1 are the longitudinal relaxation rate without and with paramagnetic species, respectively.

With `CNC[C@H](O)[C@@H](O)[C@H](O)[C@H](O)CO.CNC[C@H](O)[C@@H](O)[C@H](O)[C@H](O)CO.O=C([O-])CN(CCN(CC(=O)[O-])CC(=O)O)CCN(CC(=O)[O-])CC(=O)O.[Gd+3]` [Gd-DTPA, Gadopentetic acid] the r1 relaxivity was 3.26 mM⁻¹ s⁻¹.
